Measurements as given in ChEMBL document CHEMBL5724696, “Autophagy assay results for EUbOPEN Chemogenomics Library” (2024).
Several values for one entry are separate records, joined by “and”; a condition that tells them apart may be missing. Equal entries are not always repeated.

What was measured:
Assay type in all cases: functional, Homo sapiens
[1] = tested on: U2OS; experiment: (§1) Here: values are normalized to the negative (DMSO; defined as 0% autophagy induction) and positive (250nM Torin1; mTOR inhibitor; defined as maximal inducer of autophagy = 100%) control compounds and represented as % of autophagy induction. […] The impact of autophagy induction on cells is complex and depends on the affected target. As such, the magnitude of a phenotype may not be equally mirrored in the %-value of autophagy induction and vice versa. The dynamics of the induction may indicate the mode of activation: e.g. activation via phosphorylation or a signaling cascade may occur fast, while activation via transcription factors may take considerably longer. […] Of note, treatment concentrations may be sub-optimal for specific compounds, leading to false negative annotations.; conditions: Culturing Media DMEM, 1 % Penicillin/Streptomycin, 10% Fetal bovin serum Add-On: No, Screening Media Control DMEM, Screening Media Samples DMEM
[2] = tested on: TERT-RPE1; experiment: as §1; conditions: Culturing Media DMEM/F12 (1:1), 1 % Penicillin/Streptomycin, 10% Fetal bovin serum Add-On: No, Screening Media Control DMEM/F12 (1:1), Screening Media Samples DMEM/F12 (1:1)
[3] = tested on: U2OS; experiment: as §1; conditions: Culturing Media DMEM, 1 % Penicillin/Streptomycin, 10% Fetal bovin serum Add-On: No, Screening Media Control DMEM, Screening Media Samples DMEM; remark: listed apart in the source
[4] = Compound Concentration 0.5 uM, Timepoint 12 hours
[5] = Compound Concentration 0.5 uM, Timepoint 24 hours
[6] = Compound Concentration 0.5 uM, Timepoint 36 hours
[7] = Compound Concentration 0.5 uM, Timepoint 60 hours
[8] = Compound Concentration 2 uM, Timepoint 12 hours
[9] = Compound Concentration 2 uM, Timepoint 24 hours
[10] = Compound Concentration 2 uM, Timepoint 36 hours
[11] = Compound Concentration 2 uM, Timepoint 60 hours
[12] = Compound Concentration 10 uM, Timepoint 12 hours
[13] = Compound Concentration 10 uM, Timepoint 24 hours
[14] = Compound Concentration 10 uM, Timepoint 36 hours
[15] = Compound Concentration 10 uM, Timepoint 60 hours

Work on C[C@H](CO)Nc1nc(SCc2cccc(Cl)c2F)nc2[nH]c(=O)sc12 yielded an autophagy induction [1, 4] of -2.252%, an autophagy induction [1, 5] of -5.227% and an autophagy induction [1, 6] of -4.361%. It also gave an autophagy induction [1, 7] of 0.5148%, an autophagy induction [1, 8] of -3.135% and an autophagy induction [1, 9] of -6.665%. The autophagy induction [1, 10] was -3.053%, the autophagy induction [1, 11] was -3.815% and the autophagy induction [1, 12] was -3.826%. For the same compound, the autophagy induction [1, 13] was 1.119%, the autophagy induction [1, 14] was 5.199% and the autophagy induction [1, 15] was 9.3581%. It also gave an autophagy induction [2, 4] of -10.6276%, an autophagy induction [2, 5] of -12.9518% and an autophagy induction [2, 6] of -15.2456%. The autophagy induction [2, 7] was -20.3989%, the autophagy induction [2, 8] was -5.728% and the autophagy induction [2, 9] was -8.929%. For the same compound, the autophagy induction [2, 10] was -11.3534%, the autophagy induction [2, 11] was -17.566% and the autophagy induction [2, 12] was -4.7585%. The autophagy induction [2, 13] was -7.211%, the autophagy induction [2, 14] was -11.193% and the autophagy induction [2, 15] was -13.8782%. For the same compound, the autophagy induction [3, 4] was 5.635%, the autophagy induction [3, 5] was -1.036% and the autophagy induction [3, 6] was -0.662%. The autophagy induction [3, 7] was 0.3997%, the autophagy induction [3, 8] was -11.0736% and the autophagy induction [3, 9] was -4.995%. The autophagy induction [3, 10] was -2.19%, the autophagy induction [3, 11] was -0.5002% and the autophagy induction [3, 12] was 9.288%. It also gave an autophagy induction [3, 13] of 6.328%, an autophagy induction [3, 14] of 3.708% and an autophagy induction [3, 15] of 1.649%.
Cc1c(F)cccc1NC(=O)Nc1ccc(Cl)c(S(=O)(=O)[C@H]2CCCNC2)c1O [DANIRIXIN] gave an autophagy induction [1, 4] of -10.8402%, an autophagy induction [1, 5] of -17.1359% and an autophagy induction [1, 6] of -12.7926%. For the same compound, the autophagy induction [1, 7] was -5.9905%, the autophagy induction [1, 8] was -6.206% and the autophagy induction [1, 9] was -10.5833%. It also gave an autophagy induction [1, 10] of -10.8283%, an autophagy induction [1, 11] of -13.8786% and an autophagy induction [1, 12] of -11.164%. The autophagy induction [1, 13] was -5.925%, the autophagy induction [1, 14] was -8.152% and the autophagy induction [1, 15] was -8.851%. For the same compound, the autophagy induction ([2]; Compound Concentration 0.5 uM, Timepoint 12 hours, 12 h, 0.5 µM) was -1.988% and 1.2715%, the autophagy induction ([2]; Compound Concentration 0.5 uM, Timepoint 24 hours, 24 h, 0.5 µM) was -2.9066% and -1.048% and the autophagy induction ([2]; Compound Concentration 0.5 uM, Timepoint 36 hours, 36 h, 0.5 µM) was -6.399% and -2.355%. For the same compound, the autophagy induction ([2]; Compound Concentration 0.5 uM, Timepoint 60 hours, 60 h, 0.5 µM) was -5.802% and -6.526%, the autophagy induction ([2]; Compound Concentration 2 uM, Timepoint 12 hours, 12 h, 2 µM) was -2.5% and 0.287% and the autophagy induction ([2]; Compound Concentration 2 uM, Timepoint 24 hours, 24 h, 2 µM) was -3.213% and -0.8718%. For the same compound, the autophagy induction ([2]; Compound Concentration 2 uM, Timepoint 36 hours, 36 h, 2 µM) was -5.9285% and 0.3135%, the autophagy induction ([2]; Compound Concentration 2 uM, Timepoint 60 hours, 60 h, 2 µM) was -6.839% and -1.623% and the autophagy induction ([2]; Compound Concentration 10 uM, Timepoint 12 hours, 12 h, 10 µM) was 1.595% and 0.8887%. For the same compound, the autophagy induction ([2]; Compound Concentration 10 uM, Timepoint 24 hours, 24 h, 10 µM) was 3.736% and 2.2115%, the autophagy induction ([2]; Compound Concentration 10 uM, Timepoint 36 hours, 36 h, 10 µM) was 4.117% and 5.758% and the autophagy induction ([2]; Compound Concentration 10 uM, Timepoint 60 hours, 60 h, 10 µM) was 6.176% and 5.1403%. For the same compound, the autophagy induction [3, 4] was 3.972%, the autophagy induction [3, 5] was -2.873% and the autophagy induction [3, 6] was -59.8201%. It also gave an autophagy induction [3, 7] of -1.181%, an autophagy induction [3, 8] of -1.664% and an autophagy induction [3, 9] of -3.195%. For the same compound, the autophagy induction [3, 10] was -60.7356%, the autophagy induction [3, 11] was -1.731% and the autophagy induction [3, 12] was -5.705%. The autophagy induction [3, 13] was -2.005%, the autophagy induction [3, 14] was -60.1624% and the autophagy induction [3, 15] was -1.218%.
